Experimental findings from US20240051958A1, “DIACYLGLYCEROL KINASE (DGK) ALPHA INHIBITORS AND USES THEREOF” (priority 2022, published 2024) are described below.

For one assay, the target named is DGKA (Homo sapiens (Human), UniProt P23743). Put plainly: DGKA Inhibition ADP-Glo Assay. Format: biochemical. Particulars: 40 μM ATP, 200 μM DLG in substrate working solution, 25° C., 60 min. Here is the method:
The DGKA inhibition reactions were performed using ADP-Glo assay. The reactions were carried out in 50 mM HEPES, 100 mM NaCl, 10 mM MgCl2, 1 mM CaCl2, 0.005% TritonX-100 and 1 mM DTT as working solution (pH=7.5). 30 nL DMSO solution of each test compound (Top concentration 0.4 μM with 10 point, 4-fold dilution series for each compound) were transferred to 384 well plate by Echo and 5 μL DGKA (SignalChem, D21-10BG) enzyme working solution at 2×final reaction concentration was added to each well. After incubated at 25° C. for 15 minutes, 5 μL substrate working solution contain 40 μM ATP (Promega, V915B) and 200 μM DLG (SignalChem, D430-59) were added to initiate reaction. After enzymatic reaction at 25° C. for 60 min, ADP Glo assay reagents (Promega, V9102) were added and luminescence was recorded using an EnVision following the instruction of manual. […] The IC50 value was calculated via a regression analysis of the inhibition rate.
For orientation: In ADP-Glo the light output rises with the ADP produced.

For another assay, the system named is Human Pan T cells. Put plainly: IL-2 Release Detection Assay. Format: cell-based. Particulars: for Activation fold: Top activation/DMSO control; for Activation % at 100 nM: fitted curve at 100 nM/DMSO control*100%. Here is the method:
Add dilutions of compounds into the cells and incubate at 37° C. &5% CO2 for 24 hours. IL-2 in cell supernatant was detected by ELISA Kit (R&D, DY202). […] Top and Bottom: Plateaus in same units as Y. LogEC50: same log units as X. Activation fold: Top activation/DMSO control. Activation % at 100 nM: Activation of non-linear regression equation curve at the concentration of 100 nM/DMSO control*100%.

Each structure is given as a SMILES string.

Sequence of DGKA (P23743 whole entry): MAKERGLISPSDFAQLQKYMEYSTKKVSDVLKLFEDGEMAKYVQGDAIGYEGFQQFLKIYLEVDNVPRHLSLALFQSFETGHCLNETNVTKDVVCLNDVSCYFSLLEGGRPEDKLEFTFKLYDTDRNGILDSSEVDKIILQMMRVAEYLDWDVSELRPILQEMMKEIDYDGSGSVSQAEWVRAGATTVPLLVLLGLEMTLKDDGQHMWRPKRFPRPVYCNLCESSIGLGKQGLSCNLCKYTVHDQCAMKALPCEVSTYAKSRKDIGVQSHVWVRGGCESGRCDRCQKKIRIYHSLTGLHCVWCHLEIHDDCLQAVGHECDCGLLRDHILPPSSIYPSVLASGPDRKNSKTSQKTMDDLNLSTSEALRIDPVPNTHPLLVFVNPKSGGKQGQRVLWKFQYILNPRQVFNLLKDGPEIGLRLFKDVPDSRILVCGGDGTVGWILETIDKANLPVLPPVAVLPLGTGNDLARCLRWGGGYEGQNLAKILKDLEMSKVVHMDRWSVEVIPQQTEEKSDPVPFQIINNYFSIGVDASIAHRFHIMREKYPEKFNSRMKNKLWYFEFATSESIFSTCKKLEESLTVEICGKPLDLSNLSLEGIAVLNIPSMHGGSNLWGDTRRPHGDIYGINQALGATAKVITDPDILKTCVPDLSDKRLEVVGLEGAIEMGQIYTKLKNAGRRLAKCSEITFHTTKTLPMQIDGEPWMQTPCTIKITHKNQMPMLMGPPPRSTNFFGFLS

A word on the IC50: it is the concentration that gives 50% inhibition. A lower IC50 goes with higher potency. At DGKA, `Cc1ccc2oc(N3CC=C(c4cc(=O)n(C)c5cc(OCCO)c(C#N)nc45)CC3)nc2c1` [Example 30, 3-(2-hydroxyethoxy)-5-methyl-8-(1-(5-methylbenzo[d]oxazol-2-yl)-1,2,3,6-tetrahydropyridin-4-yl)-6-oxo-5,6-dihydro-1,5-naphthyridine-2-carbonitrile] gave an IC50 of 0.65 nM. In the assay on Human Pan T cells, the Activation fold stood at 11.0 and the “Activation % at 100 nM” value was 244%.

At DGKA, `Cc1ccc2oc(C3CCN(c4cc(=O)n(C)c5ccc(C#N)cc45)CC3)nc2c1` [Example 3, 1-methyl-4-(4-(5-methylbenzo[d]oxazol-2-yl)piperidin-1-yl)-2-oxo-1,2-dihydroquinoline-6-carbonitrile] gave an IC50 of 2.35 nM. For the same compound, in the assay with Human Pan T cells, the Activation fold came to 7.8 and the “Activation % at 100 nM” value is 370%.

`Cc1ccc2oc(N3[C@@H]4CC[C@H]3CN(c3c(C#N)c(=O)n(C)c5ccc(F)cc35)C4)nc2c1` [Example 8, 6-fluoro-1-methyl-4-((1R,5S)-8-(5-methylbenzo[d]oxazol-2-yl)-3,8-diazabicyclo[3.2.1]octan-3-yl)-2-oxo-1,2-dihydroquinoline-3-carbonitrile]: the IC50 against DGKA stood at 7.74 nM.

With `Cc1ccc2oc(C3CCN(c4cc(=O)n(C)c5cc(OCCCO)c(C#N)nc45)CC3)nc2c1` [Example 24, 3-(3-hydroxypropoxy)-5-methyl-8-(4-(5-methylbenzo[d]oxazol-2-yl)piperidin-1-yl)-6-oxo-5,6-dihydro-1,5-naphthyridine-2-carbonitrile], on DGKA, the IC50 came to 0.31 nM. For the same compound, in the assay on Human Pan T cells, the Activation fold was found to be 25.6 and the “Activation % at 100 nM” value was found to be 679%.

For `Cc1ccc2oc(C3CCN(c4nc(=O)n(C)c5ccc(Cl)cc45)CC3)nc2c1` [Example 4, 6-chloro-1-methyl-4-(4-(5-methylbenzo[d]oxazol-2-yl)piperidin-1-yl)quinazolin-2(1H)-one], the IC50 against DGKA worked out at 4.43 nM. In the assay with Human Pan T cells, the Activation fold is given as 3.5 and the “Activation % at 100 nM” value is on record as 211%.

Consider `COCCOc1cc2c(nc1Cl)c(N1CCC(c3nc4cc(C)ccc4o3)CC1)cc(=O)n2C` [Example 15, 6-chloro-7-(2-methoxyethoxy)-1-methyl-4-(4-(5-methylbenzo[d]oxazol-2-yl)piperidin-1-yl)-1,5-naphthyridin-2(1H)-one], for which half-maximal inhibition against DGKA (IC50) required 0.19 nM. Moreover, in the assay with Human Pan T cells, the Activation fold amounted to 6.5 and the “Activation % at 100 nM” value is given as 214%.

`Cc1ccc2oc(C3CCN(c4cc(=O)n(C)c5cc(OCCN)c(C#N)nc45)CC3)nc2c1` [Example 26, 3-(2-aminoethoxy)-5-methyl-8-(4-(5-methylbenzo[d]oxazol-2-yl)piperidin-1-yl)-6-oxo-5,6-dihydro-1,5-naphthyridine-2-carbonitrile] displayed an IC50 at DGKA of 3.34 nM.

For the compound `Cn1c(=O)cc(N2CCC(c3nc4cc(F)ccc4o3)CC2)c2nc(Cl)ccc21` [Example 11, 6-chloro-4-(4-(5-fluorobenzo[d]oxazol-2-yl)piperidin-1-yl)-1-methyl-1,5-naphthyridin-2(1H)-one], the IC50 against DGKA came to 0.66 nM. In addition, in the assay on Human Pan T cells, the Activation fold amounted to 6.1 and the “Activation % at 100 nM” value was determined as 169%.

In turn, `Cc1ccc2oc(C3CCN(c4c(C#N)c(=O)n(C)c5ccc(Cl)nc45)CC3)nc2c1` [Example 9, 6-chloro-1-methyl-4-(4-(5-methylbenzo[d]oxazol-2-yl)piperidin-1-yl)-2-oxo-1,2-dihydro-1,5-naphthyridine-3-carbonitrile] came in with an IC50 against DGKA of 2.04 nM. Besides, in the assay on Human Pan T cells, the Activation fold is reported as 7.7 and the “Activation % at 100 nM” value worked out at 206%.

As for `Cc1ccc2oc(C3CCN(c4cc(=O)n(C)c5ccc(F)cc45)CC3)nc2c1` [Example 6, 6-fluoro-1-methyl-4-(4-(5-methylbenzo[d]oxazol-2-yl)piperidin-1-yl)quinolin-2(1H)-one], the IC50 on DGKA worked out at 1.23 nM.

As for `Cc1ccc2oc(C3CCN(c4nc(=O)n(C)c5ccc(C#N)cc45)CC3)nc2c1` [Example 5, 1-methyl-4-(4-(5-methylbenzo[d]oxazol-2-yl)piperidin-1-yl)-2-oxo-1,2-dihydroquinazoline-6-carbonitrile], the IC50 against DGKA is 103 nM.

As to `Cc1ccc2oc(C3CCN(c4nc(=O)n(C)c5ccc(C#N)nc45)CC3)nc2c1` [Example 14, 1-methyl-4-(4-(5-methylbenzo[d]oxazol-2-yl)piperidin-1-yl)-2-oxo-1,2-dihydropyrido[3,2-d]pyrimidine-6-carbonitrile], the IC50 at DGKA stood at 143 nM.

In the case of `Cc1ccc2oc(C3CCN(c4cc(=O)n(C)c5cc(OC6CCOCC6)c(C#N)nc45)CC3)nc2c1` [Example 25, 5-methyl-8-(4-(5-methylbenzo[d]oxazol-2-yl)piperidin-1-yl)-6-oxo-3-((tetrahydro-2H-pyran-4-yl)oxy)-5,6-dihydro-1,5-naphthyridine-2-carbonitrile], 5.29 nM corresponded to half-maximal inhibition against DGKA (IC50).

Turning to `Cc1ccc2oc(C3CCN(c4cc(=O)n(C)c5cc(OC6CCNC6)c(C#N)nc45)CC3)nc2c1` (stereo not drawn) [Example 27, 5-methyl-8-(4-(5-methylbenzo[d]oxazol-2-yl)piperidin-1-yl)-6-oxo-3-(pyrrolidin-3-yloxy)-5,6-dihydro-1,5-naphthyridine-2-carbonitrile], the IC50 against DGKA was 13.6 nM.

On to `Cc1ccc2oc(C3CCN(c4cc(=O)n(C)c5cc(OCCO)c(Cl)nc45)CC3)nc2c1` [Example 22, 6-chloro-7-(2-hydroxyethoxy)-1-methyl-4-(4-(5-methylbenzo[d]oxazol-2-yl)piperidin-1-yl)-1,5-naphthyridin-2(1H)-one], for which the IC50 against DGKA turned out to be 0.15 nM.

As for `Cc1ccc2oc(C3CCN(c4cc(=O)n(C)c5ccc(Cl)nc45)CC3)nc2c1` [Example 10, 6-chloro-1-methyl-4-(4-(5-methylbenzo[d]oxazol-2-yl)piperidin-1-yl)-1,5-naphthyridin-2(1H)-one], the IC50 on DGKA was 0.36 nM. Besides, in the assay on Human Pan T cells, the Activation fold was 7.3 and the “Activation % at 100 nM” value was 143%.

As for `COCCOc1cc2c(nc1C#N)c(N1CCC(c3nc4cc(C)ccc4o3)CC1)cc(=O)n2C` [Example 16, 3-(2-methoxyethoxy)-5-methyl-8-(4-(5-methylbenzo[d]oxazol-2-yl)piperidin-1-yl)-6-oxo-5,6-dihydro-1,5-naphthyridine-2-carbonitrile], the IC50 on DGKA is 0.35 nM. In the assay on Human Pan T cells, the Activation fold is 6.29 and the “Activation % at 100 nM” value is 253%.

`Cc1ccc2oc(C3CCN(c4nc(=O)n(C)c5ccc(Cl)nc45)CC3)nc2c1` [Example 13, 6-chloro-1-methyl-4-(4-(5-methylbenzo[d]oxazol-2-yl)piperidin-1-yl)pyrido[3,2-d]pyrimidin-2(1H)-one]: the IC50 against DGKA is 4.11 nM.

On DGKA, `Cc1ccc2oc(C3CCN(c4cc(=O)n(C)c5cc(NCCO)cnc45)CC3)nc2c1` [Example 19, 7-((2-hydroxyethyl)amino)-1-methyl-4-(4-(5-methylbenzo[d]oxazol-2-yl)piperidin-1-yl)-1,5-naphthyridin-2(1H)-one] registered an IC50 of 2.36 nM.

For `Cc1ccc2oc(C3CCN(c4cc(=O)n(C)c5cc(O[C@H]6CCOC6)c(C#N)nc45)CC3)nc2c1` [Example 29, (S)-5-methyl-8-(4-(5-methylbenzo[d]oxazol-2-yl)piperidin-1-yl)-6-oxo-3-((tetrahydrofuran-3-yl)oxy)-5,6-dihydro-1,5-naphthyridine-2-carbonitrile], 0.7 nM corresponded to half-maximal inhibition against DGKA (IC50). In the assay with Human Pan T cells, the Activation fold came to 8.5 and the “Activation % at 100 nM” value is reported as 292%.

`Cc1ccc2oc(C3CCN(c4cc(=O)n(C)c5cc(NCCO)c(Cl)nc45)CC3)nc2c1` [Example 17, 6-chloro-7-((2-hydroxyethyl)amino)-1-methyl-4-(4-(5-methylbenzo[d]oxazol-2-yl)piperidin-1-yl)-1,5-naphthyridin-2(1H)-one] showed a half-maximal inhibitory concentration (IC50) against DGKA of 0.12 nM. In the assay with Human Pan T cells, the Activation fold is recorded as 8.2 and the “Activation % at 100 nM” value was 159%.

As for `Cc1ccc2oc(C3CCN(c4nc(=O)n(C)c5ccc(F)cc45)CC3)nc2c1` [Example 7, 6-fluoro-1-methyl-4-(4-(5-methylbenzo[d]oxazol-2-yl)piperidin-1-yl)quinazolin-2(1H)-one], on DGKA, the IC50 was found to be 16 nM.

`Cc1ccc2oc(C3CCN(c4cc(=O)n(C)c5cc(NCCO)c(C#N)nc45)CC3)nc2c1` [Example 18, 3-((2-hydroxyethyl)amino)-5-methyl-8-(4-(5-methylbenzo[d]oxazol-2-yl)piperidin-1-yl)-6-oxo-5,6-dihydro-1,5-naphthyridine-2-carbonitrile]: the IC50 against DGKA stood at 0.1 nM. Also, in the assay with Human Pan T cells, the Activation fold stood at 6.9 and the “Activation % at 100 nM” value is on record as 355%.

As to `Cc1ccc2oc(C3CCN(c4cc(=O)n(C)c5cc(OC6CCOC6)c(Cl)nc45)CC3)nc2c1` (stereo not drawn) [Example 20, 6-chloro-1-methyl-4-(4-(5-methylbenzo[d]oxazol-2-yl)piperidin-1-yl)-7-((tetrahydrofuran-3-yl)oxy)-1,5-naphthyridin-2(1H)-one], the midpoint of inhibition against DGKA, the IC50, lay at 0.13 nM.
